In US9505781B2, “Compositions comprising thienopyrimidine and thienopyridine compounds and methods of use thereof” (The Regents of the University of Michigan, priority 2013, dated 2016) one finds IC50 data, which are given here for 60 compounds.

Structures are written as SMILES. Some results are limits rather than exact numbers.

The target of this assay is T1, menin-MLL interaction (Homo sapiens, UniProt O00255).
T1 sequence (O00255 1-610): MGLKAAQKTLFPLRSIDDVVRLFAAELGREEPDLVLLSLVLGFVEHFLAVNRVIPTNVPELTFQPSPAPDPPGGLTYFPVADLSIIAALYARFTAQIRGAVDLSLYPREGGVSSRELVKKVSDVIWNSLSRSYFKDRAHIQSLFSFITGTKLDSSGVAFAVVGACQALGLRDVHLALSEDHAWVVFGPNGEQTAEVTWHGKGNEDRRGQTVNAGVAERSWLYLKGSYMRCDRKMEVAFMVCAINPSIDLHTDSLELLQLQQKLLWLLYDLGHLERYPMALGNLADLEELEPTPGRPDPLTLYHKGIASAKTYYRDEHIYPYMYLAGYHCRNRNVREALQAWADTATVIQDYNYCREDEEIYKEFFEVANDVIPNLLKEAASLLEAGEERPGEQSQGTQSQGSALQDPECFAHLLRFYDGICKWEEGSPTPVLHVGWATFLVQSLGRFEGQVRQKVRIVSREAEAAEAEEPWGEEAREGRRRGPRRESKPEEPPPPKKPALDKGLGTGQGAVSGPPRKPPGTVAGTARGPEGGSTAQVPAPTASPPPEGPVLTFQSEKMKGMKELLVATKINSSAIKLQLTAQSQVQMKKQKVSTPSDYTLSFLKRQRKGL
The assay is described as follows: biochemical.
From the text: Compounds that inhibit the interaction decrease the fluorescence anisotropy which is being used as a read-out for compound screening and for IC50 determination.
What is called IC50 is the midpoint of a concentration-inhibition curve. Low values mean greater potency in that assay, high ones weaker potency in that assay. Compound `NCc1ccc(CN2CCC(Nc3ncnc4sc(CC(F)(F)F)cc34)CC2)cc1` [Compound 137] came in with an IC50 of 0.5 to 2 µM.
Compound `OCCC(F)(F)Cc1cc2c(NC3CCN(Cc4ccccc4)CC3)ncnc2s1` [Compound 138] registered an IC50 of 0.5 to 2 µM.
In turn, `Nc1ccc(CN2CCC(Nc3ncnc4sc(CC(F)(F)F)cc34)CC2)cc1` [Compound 139] returned an IC50 of 0.5 to 2 µM.
`OCc1ccc(CN2CCC(Nc3ncnc4sc(CC(F)(F)F)cc34)CC2)cc1` [Compound 140] registered a half-inhibitory concentration (IC50) of 0.5 to 2 µM.
Under `FC(F)Oc1ccc(CN2CCC(Nc3ncnc4sc(CC(F)(F)F)cc34)CC2)cc1` [Compound 141] stands 0.5 to 2 µM; under `NS(=O)(=O)c1ccc(CN2CCC(Nc3ncnc4sc(CC(F)(F)F)cc34)CC2)c(Cl)c1` [Compound 142], 0.5 to 2 µM.
Under `CN1CCN(Cc2ccc(CN3CCC(Nc4ncnc5sc(CC(F)(F)F)cc45)CC3)cc2)CC1` [Compound 143] stands 0.5 to 2 µM; under `N#Cc1ccc(CN2CCC(Nc3ncnc4sc(CC(F)(F)F)cc34)CC2)cc1` [Compound 144], 0.5 to 2 µM; under `FC(F)(F)Cc1cc2c(NC3CCN(Cc4ccc(N5CCCCC5)cc4)CC3)ncnc2s1` [Compound 145], 0.5 to 2 µM.
Turning to `FC(F)(F)Cc1cc2c(NC3CCN(Cc4ccc(C(F)(F)F)cc4)CC3)ncnc2s1` [Compound 146], the IC50 lay in the range of 0.5 to 2 µM.
Under `Cc1ccc(CN2CCC(Nc3ncnc4sc(CC(F)(F)F)cc34)CC2)cc1` [Compound 147] stands 0.5 to 2 µM.
As to `FC(F)(F)Cc1cc2c(NC3CCN(Cc4ccccc4C(F)(F)F)CC3)ncnc2s1` [Compound 148], the IC50 was in the range of 0.5 to 2 µM.
For `CCCc1cc2c(NC3CCN(Cc4ccccc4)CC3)ncnc2s1` [Compound 149], the 50% inhibitory concentration (IC50) is 0.5 to 2 µM.
Under `CCCc1cc2c(N(C)C3CCN(Cc4ccccc4)CC3)ncnc2s1` [Compound 150] stands 0.5 to 2 µM.
Under `CCCc1cc2c(NC3CCN(Cc4ccc(C)cc4)CC3)ncnc2s1` [Compound 151] stands 0.5 to 2 µM.
Take `CCCc1cc2c(NC3CCN(Cc4ccccc4Br)CC3)ncnc2s1` [Compound 152]: the IC50 was 0.5 to 2 µM.
Under `CCCc1cc2c(NC3CCN(Cc4ccccc4C)CC3)ncnc2s1` [Compound 153] stands 0.5 to 2 µM.
Under `CCCc1cc2c(NC3CCN(Cc4ccccc4Cl)CC3)ncnc2s1` [Compound 154] stands 0.5 to 2 µM.
`Cc1ccccc1CN1CCC(Nc2ncnc3sc(CC(C)(F)F)cc23)CC1` [Compound 155] displayed an IC50 of 0.5 to 2 µM.
Under `NS(=O)(=O)c1ccc(CN2CCC(Nc3ncnc4sc(CC(F)(F)F)cc34)CC2)cc1` [Compound 156] stands 0.5 to 2 µM; under `Nc1cccc(CN2CCC(Nc3ncnc4sc(CC(F)(F)F)cc34)CC2)c1` [Compound 157], 0.5 to 2 µM.
Take `FC(F)(F)Cc1sc2ncnc3c2c1CNN3C1CCN(Cc2ccccc2)CC1` [Compound 158]: the IC50 lay in the range of 0.5 to 2 µM.
Under `N#C[C@@H]1C[C@@H]1c1ccc(CN2CCC(Nc3ncnc4sc(CC(F)(F)F)cc34)CC2)cc1` [Compound 159] stands 0.5 to 2 µM; under `N#Cc1cc2cc(CN3CCC(Nc4ncnc5sc(CC(F)(F)F)cc45)C(N)C3)ccc2[nH]1` (stereo not drawn) [Compound 160], under 0.1 µM; under `N#Cc1cc2cc(CN3CCC(Nc4ncnc5sc(CC(F)(F)F)cc45)C(NC[C@H]4CCCN4C=O)C3)ccc2[nH]1` (stereo partly drawn) [Compound 161], under 0.1 µM.
Under `N#Cc1cc2cc(CN3CCC(Nc4ncnc5sc(CC(F)(F)F)cc45)C(N)C3)ccc2n1CC1CC1` (stereo not drawn) [Compound 162] stands under 0.1 µM.
In turn, `N#Cc1cc2cc(CN3CC[C@H](Nc4ncnc5sc(CC(F)(F)F)cc45)[C@H](CO)C3)ccc2[nH]1` [Compound 163] came in with an IC50 of under 0.1 µM.
`N#Cc1cc2cc(CN3CC[C@@H](Nc4ncnc5sc(CC(F)(F)F)cc45)[C@@H](CO)C3)ccc2[nH]1` [Compound 164] had a 50% inhibitory concentration (IC50) of under 0.1 µM.
Under `N[C@H]1CN(Cc2ccccc2)CC[C@@H]1Nc1ncnc2sc(CC(F)(F)F)cc12` [Compound 166] stands 0.1 to 0.5 µM; under `FC(F)(F)Cc1cc2c(N[C@H]3CCN(Cc4ccccc4)C[C@@H]3NCc3ccccc3)ncnc2s1` [Compound 167], 0.1 to 0.5 µM; under `FC(F)(F)Cc1cc2c(N[C@H]3CCN(Cc4ccccc4)C[C@@H]3NCCc3ccccc3)ncnc2s1` [Compound 168], 0.1 to 0.5 µM.
For the compound `FC(F)(F)Cc1cc2c(N[C@H]3CCN(Cc4ccccc4)C[C@@H]3NCC3CCCC3)ncnc2s1` [Compound 169], the IC50 was 0.1 to 0.5 µM.
Under `O=CN1CCCC1CN[C@H]1CN(Cc2ccccc2)CC[C@@H]1Nc1ncnc2sc(CC(F)(F)F)cc12` (stereo partly drawn) [Compound 170] stands 0.1 to 0.5 µM.
Under `FC(F)(F)Cc1cc2c(N[C@H]3CCN(Cc4ccccc4)C[C@@H]3NCCC3CCCC3)ncnc2s1` [Compound 171] stands 0.1 to 0.5 µM; under `CS(=O)(=O)N1CCC[C@H]1CN[C@H]1CN(Cc2ccccc2)CC[C@@H]1Nc1ncnc2sc(CC(F)(F)F)cc12` [Compound 172], 0.1 to 0.5 µM; under `CS(=O)(=O)N1CCC[C@H]1CN[C@@H]1CN(Cc2ccccc2)CC[C@H]1Nc1ncnc2sc(CC(F)(F)F)cc12` [Compound 173], 0.1 to 0.5 µM.
Under `FC(F)(F)Cc1cc2c(N[C@H]3CCN(Cc4ccccc4)C[C@@H]3OCc3ccccc3)ccnc2s1` [Compound 174] stands 0.1 to 0.5 µM.
As for `N#Cc1[nH]c2ccc(CN3CCC(Nc4ncnc5sc(CC(F)(F)F)cc45)CC3)cc2c1F` [Compound 176], the half-inhibitory concentration (IC50) was under 0.1 µM.
In turn, `CCn1c(C#N)cc2cc(CN3CCC(Nc4ncnc5sc(CC(F)(F)F)cc45)CC3)ccc21` [Compound 177] gave an IC50 of under 0.1 µM.
Under `N#Cc1cc2cc(CN3CCC(Nc4ncnc5sc(CC(F)(F)F)cc45)CC3)ccc2n1CC1CC1` [Compound 178] stands under 0.1 µM; under `N#Cc1cc2cc(CN3CCC(Nc4ncnc5sc(CC(F)(F)F)cc45)CC3)ccc2n1CCO` [Compound 179], under 0.1 µM.
`COc1c(CN2CCC(Nc3ncnc4sc(CC(F)(F)F)cc34)CC2)ccc2[nH]c(C#N)cc12` [Compound 180, 4-methoxy-5-((4-((6-(2,2,2-trifluoroethyl)thieno[2,3-d]pyrimidin-4-yl)amino)piperidin-1-yl)methyl)-1H-indole-2-carbonitrile] yielded a half-maximal inhibitory concentration (IC50) of under 0.1 µM.
`COc1cc2[nH]c(C#N)cc2cc1CN1CCC(Nc2ncnc3sc(CC(F)(F)F)cc23)CC1` [Compound 181, 6-methoxy-5-((4-((6-(2,2,2-trifluoroethyl)thieno[2,3-d]pyrimidin-4-yl)amino)piperidin-1-yl)methyl)-1H-indole-2-carbonitrile]: the concentration for half-maximal inhibition (IC50) is under 0.1 µM.
The compound `N#Cc1cc2cc(CN3CCC(Nc4ncnc5sc(CC(F)(F)F)cc45)CC3)c(O)cc2[nH]1` [Compound 182, 6-hydroxy-5-((4-((6-(2,2,2-trifluoroethyl)thieno[2,3-d]pyrimidin-4-yl)amino)pipendin-1-yl)methyl)-1H-indole-2-carbonitrile] displayed an IC50 of under 0.1 µM.
Under `N#Cc1cc2cc(CN3CCC(Nc4ncnc5sc(CC(F)(F)F)cc45)CC3)ccc2n1CO` [Compound 183] stands under 0.1 µM; under `N#Cc1cc2c(F)c(CN3CCC(Nc4ncnc5sc(CC(F)(F)F)cc45)CC3)ccc2[nH]1` [Compound 184], under 0.1 µM; under `N#Cc1cc2cc(CN3CCC(Nc4ncnc5sc(CC(F)(F)F)cc45)CC3)ccc2n1Cc1c[nH]cn1` [Compound 185], under 0.1 µM.
`N#Cc1cc2cc(CN3CCC(Nc4ncnc5sc(CC(F)(F)F)cc45)CC3)ccc2n1CCN` [Compound 186]: the 50% inhibitory concentration (IC50) was under 0.1 µM.
Under `N#Cc1cc2cc(CN3CCC(Nc4ncnc5sc(CC(F)(F)F)cc45)CC3)ccc2n1C[C@@H](O)CO` [Compound 187] stands under 0.1 µM.
Regarding `N#Cc1cc2cc(CN3CCC(Nc4ncnc5sc(CC(F)(F)F)cc45)CC3)ccc2n1CC(N)=O` [Compound 189], the IC50 was under 0.1 µM.
Under `CO[C@@H](CO)Cn1c(C#N)cc2cc(CN3CCC(Nc4ncnc5sc(CC(F)(F)F)cc45)CC3)ccc21` [Compound 190] stands under 0.1 µM; under `CO[C@H](CO)Cn1c(C#N)cc2cc(CN3CCC(Nc4ncnc5sc(CC(F)(F)F)cc45)CC3)ccc21` [Compound 191], under 0.1 µM; under `N#Cc1cc2cc(CN3CCC(Nc4ncnc5sc(CC(F)(F)F)cc45)CC3)ccc2n1CCN1CCOCC1` [Compound 192], under 0.1 µM.
The compound `COc1c(CN2CCC(Nc3ncnc4sc(CC(F)(F)F)cc34)CC2)ccc2c1cc(C#N)n2CC(N)=O` [Compound 193] showed an IC50 of under 0.1 µM.
In the case of `N#Cc1cc2cc(CN3CCC(Nc4ncnc5sc(CC(F)(F)F)cc45)CC3)ccc2n1CCC(N)=O` [Compound 194], the IC50 is under 0.1 µM.
With `N#Cc1cc2cc(CN3CCC(Nc4ncnc5sc(CC(F)(F)F)cc45)CC3)ccc2n1Cc1c[nH]nn1` [Compound 195], the IC50 was under 0.1 µM.
Under `N#Cc1cc2cc(CN3CCC(Nc4ncnc5sc(CC(F)(F)F)cc45)CC3)ccc2n1CCn1cccn1` [Compound 196] stands under 0.1 µM.
Under `N#CCn1c(C#N)cc2cc(CN3CCC(Nc4ncnc5sc(CC(F)(F)F)cc45)CC3)ccc21` [Compound 197] stands under 0.1 µM.
Under `N#Cc1cc2cc(CN3CCC(Nc4ncnc5sc(CC(F)(F)F)cc45)CC3)ccc2n1Cc1ncon1` [Compound 198] stands under 0.1 µM; under `N#Cc1cc2cc(CN3CCC(Nc4ncnc5sc(CC(F)(F)F)cc45)CC3)ccc2n1Cc1cc[nH]n1` [Compound 199], under 0.1 µM.
